Literature values as cited in patent US11103490B2, “Clevidipine emulsion formulations containing antimicrobial agents” (Chiesi Farmaceutici, S.P.A., priority 2010, dated 2021).

Experiments:
[1] = in vivo

SMILES: CCCC(=O)OCOC(=O)C1=C(C)NC(C)=C(C(=O)OC)C1c1cccc(Cl)c1Cl (stereo not shown) [Clevidipine, clevidipine]
- solubility in lipids: moderate to high
- solubility in water: low
- initial phase half-life [1]: about one
- terminal half-life [1]: approximately 15 minutes
